Data: US3960877A, “N-monosubstituted-2,3-pyridinedicarboxamides, and related compounds” (priority 1974, dated 1976)

What was measured:
Assay type in all cases: in vivo
Chickweed [1] = test: Postemergence herbicidal activity, % control of plant growth; conditions: post-emergence, 264 h, 8 lb/acre, about 11 days
Excerpt: (§1) By the term "postemergence" is meant that the compound is applied to the plant sought to be controlled after it has emerged from the soil surface. This term is also used to describe the application of herbicidally active compounds to soil surface in and around growing plants sought to be controlled for purposes of effecting root absorption by the undesirable plant species.
(§2) In the postemergence test the soil and developing plants were sprayed approximately 2 weeks after the seeds were sown. The compound was applied at the rate of 8 pounds per acre from about a 2 percent by weight solution of the test compound in acetone and/or alcohol. The postemergence herbicidal activity was measured in the same way as the preemergence activity; i.e. visual observation approximately 11 days after spraying, and expressed as the percent control of plant growth.
(§3) **Postemergence test: compound applied at rate of 8 lb/acre

Crabgrass [2] = test: as above; conditions: Digitaria sanguinalis, post-emergence, 264 h, 8 lb/acre, about 11 days
Excerpt: as §1, §2, §3

Cucumber [3] = test: as above; conditions: Cucumis sativus, post-emergence, 264 h, 8 lb/acre, about 11 days
Excerpt: as §1, §2, §3

Cheatgrass [4] = test: as above; conditions: Bromus tectorum, post-emergence, 264 h, 8 lb/acre, about 11 days
Excerpt: as §1, §2, §3

Alfalfa [5] = test: as above; conditions: Medicago sativa, post-emergence, 264 h, 8 lb/acre, about 11 days
Excerpt: as §1, §2, §3

Corn [6] = test: as above; conditions: Zea mays, post-emergence, 264 h, 8 lb/acre, about 11 days
Excerpt: as §1, §2, §3

Yellow Rocket [7] = test: as above; conditions: post-emergence, 264 h, 8 lb/acre, about 11 days
Excerpt: as §1, §2, §3

Snapbeans [8] = test: as above; conditions: post-emergence, 264 h, 8 lb/acre, about 11 days
Excerpt: as §1, §2, §3

Foxtail [9] = test: as above; conditions: Setaria, post-emergence, 264 h, 8 lb/acre, about 11 days
Excerpt: as §1, §2, §3

Barnyard Grass [10] = test: as above; conditions: Echinochloa crus-galli, post-emergence, 264 h, 8 lb/acre, about 11 days
Excerpt: as §1, §2, §3

Lambsquarters [11] = test: as above; conditions: Chenopodium album, post-emergence, 264 h, 8 lb/acre, about 11 days
Excerpt: as §1, §2, §3

Curled Dock [12] = test: as above; conditions: post-emergence, 264 h, 8 lb/acre, about 11 days
Excerpt: as §1, §2, §3

Johnsongrass [13] = test: as above; conditions: Sorghum halepense, post-emergence, 264 h, 8 lb/acre, about 11 days
Excerpt: as §1, §2, §3

Velvetleaf [14] = test: as above; conditions: Abutilon theophrasti, post-emergence, 264 h, 8 lb/acre, about 11 days
Excerpt: as §1, §2, §3

Wild Oats [15] = test: as above; conditions: Avena fatua, post-emergence, 264 h, 8 lb/acre, about 11 days
Excerpt: as §1, §2, §3

Nutgrass [16] = test: as above; conditions: post-emergence, 264 h, 8 lb/acre, about 11 days
Excerpt: as §1, §2, §3

Chickweed [17] = test: Preemergence herbicidal activity, % control of plant growth; conditions: pre-emergence, 504 h, 16 lb/acre, about 3 weeks
Excerpt: (§4) By "preemergence" is meant that the compound is applied to the soil prior to emergence of the weed species sought to be controlled. This term, as used herein, also means the application of the herbicidal compounds falling within the scope of this disclosure to areas wherein useful or desirable plants are either growing or have been sown, but where the undesirable plants sought to be controlled have not as yet emerged.
(§5) In using the compound, seeds of the types of plants set forth in Table II were sown in fresh soil. In the preemergence test the soil was sprayed with a solution of the test compound immediately after the seeds were planted, and before any noticeable growth developed. The solution was about a 2 percent by weight solution of the compound in acetone and/or alcohol. The compound was applied at the rate of 16 pounds per acre of soil surface.
(§6) Approximately 3 weeks after spray application, the herbicidal activity of the compound was determined by visual observation of the treated area in comparison with untreated control areas. These observations are reported below in Table II wherein the average activity rating is reported as the percent control of plant growth.
(§7) *Preemergence test: compound applied at rate of 16 lb/acre

Crabgrass [18] = test: as above; conditions: Digitaria sanguinalis, pre-emergence, 504 h, 16 lb/acre, about 3 weeks
Excerpt: as §4, §5, §6, §7

Cucumber [19] = test: as above; conditions: Cucumis sativus, pre-emergence, 504 h, 16 lb/acre, about 3 weeks
Excerpt: as §4, §5, §6, §7

Pigweed [20] = test: as above; conditions: Amaranthus retroflexus, pre-emergence, 504 h, 16 lb/acre, about 3 weeks
Excerpt: as §4, §5, §6, §7

Cheatgrass [21] = test: as above; conditions: Bromus tectorum, pre-emergence, 504 h, 16 lb/acre, about 3 weeks
Excerpt: as §4, §5, §6, §7

Alfalfa [22] = test: as above; conditions: Medicago sativa, pre-emergence, 504 h, 16 lb/acre, about 3 weeks
Excerpt: as §4, §5, §6, §7

Corn [23] = test: as above; conditions: Zea mays, pre-emergence, 504 h, 16 lb/acre, about 3 weeks
Excerpt: as §4, §5, §6, §7

Yellow Rocket [24] = test: as above; conditions: pre-emergence, 504 h, 16 lb/acre, about 3 weeks
Excerpt: as §4, §5, §6, §7

Snapbeans [25] = test: as above; conditions: pre-emergence, 504 h, 16 lb/acre, about 3 weeks
Excerpt: as §4, §5, §6, §7

Foxtail [26] = test: as above; conditions: Setaria, pre-emergence, 504 h, 16 lb/acre, about 3 weeks
Excerpt: as §4, §5, §6, §7

Barnyard Grass [27] = test: as above; conditions: Echinochloa crus-galli, pre-emergence, 504 h; barnyard grass; 16 lb/acre; about 3 weeks
Excerpt: as §4, §5, §6, §7

Lambsquarters [28] = test: as above; conditions: Chenopodium album, pre-emergence, 504 h, 16 lb/acre, about 3 weeks
Excerpt: as §4, §5, §6, §7

Curled Dock [29] = test: as above; conditions: pre-emergence, 504 h, 16 lb/acre, about 3 weeks
Excerpt: as §4, §5, §6, §7

Johnsongrass [30] = test: as above; conditions: Sorghum halepense, pre-emergence, 504 h, 16 lb/acre, about 3 weeks
Excerpt: as §4, §5, §6, §7

Velvetleaf [31] = test: as above; conditions: Abutilon theophrasti, pre-emergence, 504 h, 16 lb/acre, about 3 weeks
Excerpt: as §4, §5, §6, §7

Wild Oats [32] = test: as above; conditions: Avena fatua, pre-emergence, 504 h, 16 lb/acre, about 3 weeks
Excerpt: as §4, §5, §6, §7

Nutgrass [33] = test: as above; conditions: pre-emergence, 504 h, 16 lb/acre, about 3 weeks
Excerpt: as §4, §5, §6, §7

Pigweed [34] = test: Postemergence herbicidal activity, % control of plant growth; conditions: Amaranthus retroflexus, post-emergence, 264 h, 8 lb/acre, about 11 days
Excerpt: as §1, §2, §3

SMILES: O=c1[nH]c2nccnc2c(=O)n1C1CCCCCCC1 [Lumazine, 3-cyclooctyl]
- pest or weed control at 8966.8 g/ha (Chickweed [1]): 100%
- pest or weed control at 8966.8 g/ha (Crabgrass [2]): 100%
- pest or weed control at 8966.8 g/ha (Cucumber [3]): 100%
- pest or weed control at 8966.8 g/ha (Cheatgrass [4]): 0%
- pest or weed control at 8966.8 g/ha (Alfalfa [5]): 10%
- plant injury at 8966.8 g/ha (Corn [6]): 10%
- pest or weed control at 8966.8 g/ha (Yellow Rocket [7]): 100%
- pest or weed control at 8966.8 g/ha (Snapbeans [8]): 100%
- pest or weed control at 8966.8 g/ha (Foxtail [9]): 50%
- pest or weed control at 8966.8 g/ha (Barnyard Grass [10]): 90%
- pest or weed control at 8966.8 g/ha (Lambsquarters [11]): 100%
- pest or weed control at 8966.8 g/ha (Curled Dock [12]): 100%
- pest or weed control at 8966.8 g/ha (Johnsongrass [13]): 100%
- pest or weed control at 8966.8 g/ha (Velvetleaf [14]): 100%
- pest or weed control at 8966.8 g/ha (Wild Oats [15]): 10%
- pest or weed control at 8966.8 g/ha (Nutgrass [16]): 10%
- pest or weed control at 17933.6 g/ha (Chickweed [17]): 100%
- pest or weed control at 17933.6 g/ha (Crabgrass [18]): 90%
- pest or weed control at 17933.6 g/ha (Cucumber [19]): 100%
- pest or weed control at 17933.6 g/ha (Pigweed [20]): 100%
- pest or weed control at 17933.6 g/ha (Cheatgrass [21]): 100%
- pest or weed control at 17933.6 g/ha (Alfalfa [22]): 100%
- plant injury at 17933.6 g/ha (Corn [23]): 30%
- pest or weed control at 17933.6 g/ha (Yellow Rocket [24]): 100%
- pest or weed control at 17933.6 g/ha (Snapbeans [25]): 100%
- pest or weed control at 17933.6 g/ha (Foxtail [26]): 40%
- pest or weed control at 17933.6 g/ha (Barnyard Grass [27]): 70%
- pest or weed control at 17933.6 g/ha (Lambsquarters [28]): 100%
- pest or weed control at 17933.6 g/ha (Curled Dock [29]): 100%
- pest or weed control at 17933.6 g/ha (Johnsongrass [30]): 90%
- pest or weed control at 17933.6 g/ha (Velvetleaf [31]): 100%
- pest or weed control at 17933.6 g/ha (Wild Oats [32]): 100%
- pest or weed control at 17933.6 g/ha (Nutgrass [33]): 30%

SMILES: CC(C)n1c(=O)[nH]c2nccnc2c1=O [Lumazine, 3-isopropyl]
- pest or weed control at 8966.8 g/ha (Chickweed [1]): 0%
- pest or weed control at 8966.8 g/ha (Crabgrass [2]): 0%
- pest or weed control at 8966.8 g/ha (Cucumber [3]): 10%
- pest or weed control at 8966.8 g/ha (Pigweed [34]): 0%
- pest or weed control at 8966.8 g/ha (Cheatgrass [4]): 0%
- pest or weed control at 8966.8 g/ha (Alfalfa [5]): 0%
- plant injury at 8966.8 g/ha (Corn [6]): 0%
- pest or weed control at 8966.8 g/ha (Snapbeans [8]): 30%
- pest or weed control at 8966.8 g/ha (Foxtail [9]): 0%
- pest or weed control at 8966.8 g/ha (Barnyard Grass [10]): 0%
- pest or weed control at 8966.8 g/ha (Lambsquarters [11]): 40%
- pest or weed control at 8966.8 g/ha (Curled Dock [12]): 0%
- pest or weed control at 8966.8 g/ha (Johnsongrass [13]): 0%
- pest or weed control at 8966.8 g/ha (Velvetleaf [14]): 0%
- pest or weed control at 8966.8 g/ha (Wild Oats [15]): 0%
- pest or weed control at 8966.8 g/ha (Nutgrass [16]): 0%
- pest or weed control at 17933.6 g/ha (Chickweed [17]): 60%
- pest or weed control at 17933.6 g/ha (Crabgrass [18]): 70%
- pest or weed control at 17933.6 g/ha (Cucumber [19]): 100%
- pest or weed control at 17933.6 g/ha (Pigweed [20]): 100%
- pest or weed control at 17933.6 g/ha (Cheatgrass [21]): 10%
- pest or weed control at 17933.6 g/ha (Alfalfa [22]): 100%
- plant injury at 17933.6 g/ha (Corn [23]): 10%
- pest or weed control at 17933.6 g/ha (Yellow Rocket [24]): 100%
- pest or weed control at 17933.6 g/ha (Snapbeans [25]): 90%
- pest or weed control at 17933.6 g/ha (Foxtail [26]): 10%
- pest or weed control at 17933.6 g/ha (Barnyard Grass [27]): 0%
- pest or weed control at 17933.6 g/ha (Lambsquarters [28]): 100%
- pest or weed control at 17933.6 g/ha (Curled Dock [29]): 100%
- pest or weed control at 17933.6 g/ha (Johnsongrass [30]): 70%
- pest or weed control at 17933.6 g/ha (Velvetleaf [31]): 100%
- pest or weed control at 17933.6 g/ha (Wild Oats [32]): 10%
- pest or weed control at 17933.6 g/ha (Nutgrass [33]): 0%
